Key:
[1] = test system: P.A.F.-induced aggregation of blood platelets; assay: anti-P.A.F. action in vitro (P.A.F.-induced platelet aggregation); type: cell-based; conditions: Oryctolagus cuniculus, 10^-5 mole/liter, read-out: Anti-P.A.F. activity in vitro, % inhibition of the P.A.F.-induced aggregation of blood platelets from rabbit blood
Summary of the method: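 Washed rabbit platelets (4×10^9/ml stock suspension, aspirin-lysine treated) in modified Tyrode buffer pH 7.4 with 1.3 mM CaCl2 and gelatine; test substance at 10^-5 mol/l final, 90 s preincubation before P.A.F. Aggregation followed 4-5 min by aggregometer; % inhibition of P.A.F.-induced aggregation increase calculated.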

[2] = test system: cutaneous histamine induced anaphylactoid reactions; assay: inhibition of the anaphylactoid cutaneous reaction induced by histamine; type: in vivo, Sprague-Dawley rats; conditions: Rattus norvegicus, po, 0.5 h; 2 × 10^-5 mole/kg p.o., one hour before histamine; assessed 30 minutes after provocation; read-out: Inhibitory action against cutaneous histamine induced anaphylactoid reactions in rats, % inhibition
Procedure: 1. Determination of the inhibition of the anaphylactoid cutaneous reaction induced by histamine.
The inhibition of the anaphylactoid cutaneous reaction induced by histamine was determined in Sprague-Dawley rats having body weights of 150-180 g.
In order to determine the histamine-induced anaphylactoid skin reaction, 50 μl of a physiological saline solution containing 0.8 mg/ml of histamine were injected into the animals intradermally on one flank. Immediately afterward, a solution of 26.4 mg/kg of a blue dye (Evan's Blue) was administered i.v. to the animals.
The test substances were dissolved in distilled water which contains 1% by volume of dimethylformamide and 1% by volume of Tween®20 (=polyoxyethylene(20) sorbitan monolaurate). One hour before the histamine injection, each animal received 2×10^-5 mol/kg of test substance, in each case administered orally in 0.5 ml of solution. A control group received only the solvent for comparison.
The histamine-induced anaphylactoid reactions which manifested themselves by edema formation, swelling and exudation of blue dye are assessed 30 minutes after provocation by the histamine injection. This is carried out by visual determination of the extent of the exudation of blue dye at the sites of edema formation. With the aid of comparison scales, the percentage inhibition of the anaphylactoid reactions produced by the test substances is determined in comparison with the reactions of the control animals not treated with test substance.
The results obtained with compounds of the formula I by the above test method are reproduced in the following table A. The example numbers given as identifiers for the compounds of formula I refer to the subsequent preparative examples.

Row | SMILES | inhibition at 10 µM [1] | inhibition in vivo at 20 µmol/kg [2]
1 | Cc1cc(-c2c(C)c3cccc4c3n2CC(CCCC(=O)N2CCN(c3ccccn3)CC2)O4)cc(C)c1O (centres unmarked) [Example 23] | 66% | –
2 | Cc1ccnc(N2CCN(CCC3Cn4c(-c5ccc(O)c(O)c5)c(C)c5cccc(c54)O3)CC2)c1 (centres unmarked) [Example 13] | 94% | –
3 | Cc1ccnc(N2CCN(C(=O)CCC3Cn4c(-c5ccc(O)cc5)c(C)c5c(O)ccc(c54)O3)CC2)c1 (centres unmarked) [Example 69] | 97% | –
4 | Cc1cc(-c2c(C)c3c(F)ccc4c3n2CC(CCN2CCN(c3ccccn3)CC2)O4)cc(C)c1O (centres unmarked) [Example 27] | – | 55%
5 | COc1cc(-c2c(C)c3c(O)ccc4c3n2CC(CCC(=O)N2CCN(c3ccccn3)CC2)O4)cc(C)c1O (centres unmarked) [Example 72] | 79% | –
6 | Cc1cc(-c2c(C)c3cccc4c3n2CC(CCC(=O)N2CCN(c3ccccn3)CC2)O4)cc(C)c1O (centres unmarked) [Example 26] | 82% | –
7 | Cc1ccnc(N2CCN(C(=O)CCC3Cn4c(-c5ccc(O)cc5)c(C)c5cccc(c54)O3)CC2)c1 (centres unmarked) [Example 15] | 100% | 32%
8 | Cc1ccnc(N2CCN(C(=O)CCC3Cn4c(-c5cc(C)c(O)c(C)c5)c(C)c5cccc(c54)O3)CC2)c1 (centres unmarked) [Example 25] | 91% | 30%
9 | Cc1ccnc(N2CCN(CCCC3Cn4c(-c5cc(C)c(O)c(C)c5)c(C)c5c(F)ccc(c54)O3)CC2)c1 (centres unmarked) [Example 29] | 50% | 46%
10 | Cc1ccnc(N2CCN(CCC3Cn4c(-c5ccc(O)cc5)c(C)c5c(O)ccc(c54)O3)CC2)c1 (centres unmarked) [Example 4, 2,3-Dihydro-7-hydroxy-5-(4-hydroxyphenyl)-6-methyl-2-[2-(4-(4-methylpyridin-2-yl)piperazin-1-yl)ethyl]pyrrolo[1,2,3-de]-1,4-benzoxazine] | 99% | –
11 | COc1cc(-c2c(C)c3cccc4c3n2CC(CCC(=O)N2CCN(c3ccc(C)cn3)CC2)O4)ccc1O (centres unmarked) [Example 39] | – | 32%
12 | COc1cc2c3c(c1)c(C)c(-c1cc(C)c(O)c(C)c1)n3CC(CCN1CCN(c3cc(C)ccn3)CC1)O2 (centres unmarked) [Example 43] | 95% | 32%
13 | Cc1ccnc(N2CCN(CCC3Cn4c(-c5cc(C)c(O)c(C)c5)c(C)c5c(F)ccc(c54)O3)CC2)c1 (centres unmarked) [Example 28] | 83% | –
14 | Cc1ccnc(N2CCN(CCC3Cn4c(-c5cc(C)c(O)c(C)c5)c(C)c5cccc(c54)O3)CC2)c1 (centres unmarked) [Example 20] | 92% | –
15 | COc1cc(-c2c(C)c3cccc4c3n2CC(CCN2CCN(c3cc(C)ccn3)CC2)O4)ccc1O (centres unmarked) [Example 12] | 93% | –
16 | Cc1ccnc(N2CCN(C(=O)CCCC3Cn4c(-c5cc(C)c(O)c(C)c5)c(C)c5cccc(c54)O3)CC2)c1 (centres unmarked) [Example 9, 2,3-Dihydro-5-(3,5-dimethyl-4-hydroxyphenyl)-6-methyl-2-[4-(4-(4-methylpyridin-2-yl)piperazin-1-yl)-4-oxobutyl]-pyrrolo[1,2,3-de]-1,4-benzoxazine] | 67% | –
17 | Cc1ccnc(N2CCN(CCC3Cn4c(-c5cc(C)c(O)c(C)c5)c(C)c5cc(O)cc(c54)O3)CC2)c1 (centres unmarked) [Example 44] | 99% | 37%
18 | Cc1ccnc(N2CCN(CCC3Cn4c(-c5cc(C)c(O)c(C)c5)c(C)c5cc(F)cc(c54)O3)CC2)c1 (centres unmarked) [Example 42] | 40% | 36%
19 | Cc1ccc(N2CCN(C(=O)CCC3Cn4c(-c5ccc(O)cc5)c(C)c5cccc(c54)O3)CC2)nc1 (centres unmarked) [Example 34] | 77% | –
20 | Cc1cc(-c2c(C)c3c(O)ccc4c3n2CC(CCC(=O)N2CCN(c3ccccn3)CC2)O4)cc(C)c1O (centres unmarked) [Example 71] | 84% | –
21 | COc1ccc2c3c1c(C)c(-c1ccc(O)cc1)n3CC(CCN1CCN(c3cc(C)ccn3)CC1)O2 (centres unmarked) [Example 3, 2,3-Dihydro-5-(4-hydroxyphenyl)-7-methoxy-6-methyl-2-[2-(4-(4-methylpyridin-2-yl)piperazin-1-yl)ethyl]pyrrolo[1,2,3-de]-1,4-benzoxazine] | 92% | –
22 | Cc1cc(-c2c(C)c3cccc4c3n2CC(CCCCN2CCN(c3ccccn3)CC2)O4)cc(C)c1O (centres unmarked) [Example 65] | 52% | –
23 | Cc1ccnc(N2CCN(C(=O)CCC3Cn4c(-c5cc(C)c(O)c(C)c5)c(C)c5c(O)ccc(c54)O3)CC2)c1 (centres unmarked) [Example 67] | 97% | –

Reference: patent publication US5474988A, “5-phenylpyrrolo-1,4-benzoxazine and 5-phenylpyrrolo-1,4-benzothiazine compounds, process and intermediates for their production and pharmaceutical compositions containing them” (Kali-Chemie Pharma GmbH, priority 1993, dated 1995)
